Measured values from patent US20120207763A1, “PYRROLOPYRIMIDINE COMPOUNDS AND THEIR USES” (ASTEX THERAPEUTICS LIMITED, priority 2006, published 2012).
Read-outs that look alike come from different tables or passages of the source.

What was measured:
Type in all cases: biochemical
[1] = molecular target: CDK4/Cyclin-D1 kinase complex (Homo sapiens, UniProt P11802); experiment: CDK4 ELISA based assay, Rb Ser780 phosphorylation
Description: The compounds that inhibit the CDK4 kinase activity would inhibit the signal output of the assay.

[2] = molecular target: CDK4 (Homo sapiens, UniProt P11802); experiment: CDK4 HTRF assay; conditions: Table E; read-out: CDK4 HTRF/IC50 [umol l − 1]
CDK4, sequence (P11802 whole entry): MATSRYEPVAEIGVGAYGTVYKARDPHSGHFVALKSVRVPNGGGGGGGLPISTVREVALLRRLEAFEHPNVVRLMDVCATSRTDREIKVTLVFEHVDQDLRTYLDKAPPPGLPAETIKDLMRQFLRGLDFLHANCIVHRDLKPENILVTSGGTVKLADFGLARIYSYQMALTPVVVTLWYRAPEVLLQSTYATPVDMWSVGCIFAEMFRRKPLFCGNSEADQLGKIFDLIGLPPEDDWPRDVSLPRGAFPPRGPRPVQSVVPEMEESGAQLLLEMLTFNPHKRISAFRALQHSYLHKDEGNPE
CDK4, sequence (P24385 whole entry partner): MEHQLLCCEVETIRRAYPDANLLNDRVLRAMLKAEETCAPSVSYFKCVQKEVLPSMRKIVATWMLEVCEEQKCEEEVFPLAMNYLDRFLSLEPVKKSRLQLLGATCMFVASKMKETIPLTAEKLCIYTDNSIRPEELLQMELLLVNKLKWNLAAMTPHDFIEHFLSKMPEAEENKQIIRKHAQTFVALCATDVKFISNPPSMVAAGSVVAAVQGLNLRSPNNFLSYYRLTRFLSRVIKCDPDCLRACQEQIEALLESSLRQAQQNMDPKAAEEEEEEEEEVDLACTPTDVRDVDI

[3] = molecular target: CDK2/Cyclin-A kinase complex (Homo sapiens, UniProt P24941); experiment: CDK2 IMAP fluorescence polarization assay
Summary of the method: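 Fluorescence polarization (IMAP) using purified active CDK2/Cyclin-A complex with a TAMRA-tagged Histone H1-derived peptide substrate; phosphorylated peptide bound by a metal-containing reagent raises polarization. Inhibition read as reduced fluorescence polarization signal.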

[4] = Table E, read-out: CDK4 ELISA assay IC50 [umol l−]
[5] = Table E, read-out: CDK2cyA IMAP/IC50 [umol l − 1]

CDK4/Cyclin-D1 kinase complex, sequence (P11802 whole entry): as the sequence (P11802 whole entry) above
CDK4/Cyclin-D1 kinase complex, sequence (P24385 whole entry partner): as the sequence (P24385 whole entry partner) above

| Structure (SMILES) | IC50 [1, 4] [µM] | IC50 [2] [µM] | IC50 [3, 5] [µM] | IC50 ([1]; Table C, read-out: CDK4 IC50) [µM] | IC50 ([3]; Table C, read-out: CDK2 IC50) [µM] |
| --- | --- | --- | --- | --- | --- |
| CCC(C(=O)O)n1ccc2cnc(Nc3ccc(N4CCN(C(C)=O)CC4)cc3)nc21 (centres unmarked) [Example 220] | > 10 | > 10 |  |  |  |
| CCCC(C(=O)OCC)n1ccc2cnc(Nc3ccc(N4CCN(C(C)=O)CC4)cc3)nc21 (centres unmarked) [Example 224] | > 10 | > 10 |  |  |  |
| CC(=O)N1CCN(c2ccc(Nc3ncc4ccn(C5CCCCCC5)c4n3)cc2)CC1 [Example 225] | < 1 | < 1 | < 10 |  |  |
| CC(=O)N1CCN(c2ccc(Nc3ncc4c(C)cn(C5CC5)c4n3)cc2)CC1 [Example 275] | 8 | > 10 | > 10 |  |  |
| Cc1cn(C2CCCCC2)c2nc(Nc3ccc4[nH]ncc4c3)ncc12 [Example 280] | < 10 | > 10 | > 10 |  |  |
| CC(=O)c1cn(C2CCCC2)c2nc(Nc3ccc(N4CCNCC4)cc3)ncc12 [Example 326, 1-[7-cyclopentyl-2-(4-piperazin-1-yl-phenylamino)-7H-pyrrolo[2,3-d]pyrimidin-5-yl]-ethanone] | > 10 | 10 |  |  |  |
| CC(=O)c1c(C)n(C2CCCC2)c2nc(Nc3ccc(N4CCNCC4)cc3)ncc12 [Example 333, 1-[7-Cyclopentyl-6-methyl-2-(4-piperazin-1-yl-phenylamino)-7H-pyrrolo[2,3-d]pyrimidin-5-yl]-ethanone] | < 10 | 10 | 10 |  |  |
| CCC(CC)n1c(C=O)cc2cnc(Nc3ccc(N4CCN(C(C)=O)CC4)cc3)nc21 [Example 361, 2-[4-(4-Acetyl-piperazin-1-yl)-phenylamino]-7-(1-ethyl-propyl)-7H-pyrrolo[2,3-d]pyrimidine-6-carbaldehyde] | < 1 | < 1 | < 1 |  |  |
| CCC(CC)n1c(C=NOC)cc2cnc(Nc3ccc(N4CCN(C(C)=O)CC4)cc3)nc21 [Example 364] | > 10 | < 1 | < 10 |  |  |
| CCC(CC)n1c(C(=O)O)cc2cnc(Nc3ccc(N4CCN(C(C)=O)CC4)cc3)nc21 [Example 374, 2-[4-(4-Acetyl-piperazin-1-yl)-phenylamino]-7-(1-ethyl-propyl)-7H-pyrrolo[2,3-d]pyrimidine-6-carboxylic acid] | < 1 | < 1 | < 1 |  |  |
| CCC(CC)n1c(C(=O)O)cc2cnc(Nc3ccc(N4CCNCC4)cc3)nc21 [Example 375, 7-(1-Ethyl-propyl)-2-(4-piperazin-1-yl-phenylamino)-7H-pyrrolo[2,3-d]pyrimidine-6-carboxylic acid] | < 1 | < 1 | < 1 |  |  |
| CCC(CC)n1c(COC)cc2cnc(Nc3ccc(N4CCN(C(C)=O)CC4)cc3)nc21 [Example 379] | > 10 |  | > 10 |  |  |
| CCC(CC)n1c(COC)cc2cnc(Nc3ccc(N4CCN(C(=O)OC(C)(C)C)CC4)cc3)nc21 [Example 381] | > 10 | > 10 |  |  |  |
| CCC(CC)n1c(COC)cc2cnc(Nc3ccc(N4CCNCC4)cc3)nc21 [Example 382] | > 10 | < 1 | < 10 |  |  |
| CC(=O)c1c(C)c2cnc(Nc3ccc(N4CCNCC4)cc3)nc2n1C1CCCC1 [Example 383] | < 1 | < 1 | < 1 |  |  |
| CC(=O)c1c(C)c2cnc(Nc3ccc(N4CCNCC4)cn3)nc2n1C1CCCC1 [Example 387] | < 1 | < 1 | 10 |  |  |
| CC(C)(C)OC(=O)N1CCN(c2ccc(Nc3ncc4ccn(C5CCCC5)c4n3)cc2)CC1 [Example 427] | > 10 | > 10 |  |  |  |
| Cc1cc2cnc(Nc3ccc(N4CCNCC4)cc3)nc2n1C1CCCC1 [Example 430] | < 1 | < 1 | < 1 |  |  |
| CCC(CC)N1C(=O)C(C)(C)c2cnc(Nc3ccc(N4CCN(C)CC4)cc3)nc21 [drawing 155] |  |  |  | < 10 | < 10 |
